Assay results from patent US20210041447A1, “AZACARBOLINE COMPOUNDS FOR THE DETECTION OF TAU AGGREGATES” (AC IMMUNE SA, priority 2018, published 2021).
Where two headings read alike, the source gives them in different places.

How the values were obtained:
[1] = target: Tau (Homo sapiens, UniProt P10636); test: Tau binding in AD brain homogenate, competition with 18F-labeled Tau binder; parameters: High affinity to Tau: key: −: poor; ∘: moderate; +: good; ++: very good; +++: excellent; details: for High affinity to Tau: AD brain homogenate, non-radioactive fluorine-19 derivatives; for IC50: human AD brain homogenate, fluorine-19 derivatives
Sequence of Tau (P10636 623-708 limits assumed): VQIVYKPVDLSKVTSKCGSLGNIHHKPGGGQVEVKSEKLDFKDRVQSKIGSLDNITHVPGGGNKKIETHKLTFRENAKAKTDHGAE
Description: (§1) 20 μg of human Alzheimer disease brain homogenate was incubated with a dilution series of each test compound (1000 to 0.06 nM) in the presence of 800 Bq of ^18F-labeled Tau binder. The samples were shaken at 110 rpm for 45 min at 37° C. Samples were then filtered through GF/B 96 well filter plates and washed twice with 300 μL assay buffer (PBS containing 0.1% BSA and 2% DMSO). Thereafter, filter plates were sealed and a Fuji Film Imaging Plate (BAS-SR2025) was placed on top. The imaging plate was analyzed after overnight exposition using a Fuji Film BAS-5000. Non-specific signal was determined with samples containing ^18F-labeled Tau-reference binder in the presence of assay buffer without brain substrate and competitor. Specific binding was calculated by subtracting the non-specific signal from the measured samples signal. The unblocked ^18F-labeled Tau-binder signal was defined as total binding. IC50 values were calculated by Prism V6 (GraphPad) setting total binding to 100%.

[2] = target: T1, MAO A (Mus musculus, UniProt Q64133); test: Binding affinity to MAO A in mouse brain homogenate, [18F]fluoroethyl harmine competition; details: for IC50: 18F-FEH competition; as to Low affinity to MAO A (mouse homogenate): key: −: poor; ∘: moderate; +: good; ++: very good; +++: excellent
T1 construct: from tissue; host or cells: mouse brain homogenate
T1 sequence (Q64133 1-526): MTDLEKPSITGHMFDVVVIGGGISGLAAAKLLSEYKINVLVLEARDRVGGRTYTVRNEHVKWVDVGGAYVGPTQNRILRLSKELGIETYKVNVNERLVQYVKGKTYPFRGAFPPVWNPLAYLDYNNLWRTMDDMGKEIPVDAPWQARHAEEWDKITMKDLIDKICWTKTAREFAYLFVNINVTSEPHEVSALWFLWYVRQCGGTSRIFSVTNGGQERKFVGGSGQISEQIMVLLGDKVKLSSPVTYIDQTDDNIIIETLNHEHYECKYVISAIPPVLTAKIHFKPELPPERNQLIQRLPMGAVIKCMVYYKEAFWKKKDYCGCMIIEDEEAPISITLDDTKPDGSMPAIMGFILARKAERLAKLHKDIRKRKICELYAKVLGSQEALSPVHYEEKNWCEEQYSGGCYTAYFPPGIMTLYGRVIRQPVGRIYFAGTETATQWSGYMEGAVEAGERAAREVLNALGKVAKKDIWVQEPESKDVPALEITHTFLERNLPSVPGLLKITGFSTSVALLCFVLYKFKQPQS
Description: as §1, with “of” for “of human Alzheimer disease”, “homogenate (without AD pathology)” for “homogenate”, “18F-labeled MAO-A binder ([^18F]fluoroethyl harmine, FEH).” for “^18F-labeled Tau binder.”, “96-well” for “96 well”, “FEH” for “Tau-reference binder”, “FEH” for “Tau-binder”

[3] = target: T2, MAO B (Homo sapiens, UniProt P27338); test: Binding affinity to MAO B in HC brain homogenate, [18F]fluoro deprenyl competition; parameters: Low affinity to MAO B: key: −: poor; ∘: moderate; +: good; ++: very good; +++: excellent
T2 construct: from tissue; host or cells: human brain homogenate without AD pathology
T2 sequence (P27338 1-520): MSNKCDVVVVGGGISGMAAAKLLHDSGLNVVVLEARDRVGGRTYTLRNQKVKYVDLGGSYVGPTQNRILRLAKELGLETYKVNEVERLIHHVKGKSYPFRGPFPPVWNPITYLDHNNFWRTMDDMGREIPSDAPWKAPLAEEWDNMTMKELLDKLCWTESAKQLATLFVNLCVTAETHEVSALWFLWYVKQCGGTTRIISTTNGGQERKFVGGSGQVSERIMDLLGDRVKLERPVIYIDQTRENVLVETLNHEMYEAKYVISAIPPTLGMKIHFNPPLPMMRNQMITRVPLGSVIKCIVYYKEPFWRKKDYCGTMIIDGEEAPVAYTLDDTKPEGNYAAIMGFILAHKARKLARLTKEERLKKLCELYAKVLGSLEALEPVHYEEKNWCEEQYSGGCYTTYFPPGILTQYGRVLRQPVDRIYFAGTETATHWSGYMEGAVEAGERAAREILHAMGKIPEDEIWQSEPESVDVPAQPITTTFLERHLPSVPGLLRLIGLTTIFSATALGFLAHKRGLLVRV
Description: as §1, with “human” for “human Alzheimer disease”, “homogenate (without AD pathology)” for “homogenate”, “MAO-B binder ([^18F]fluoro deprenyl).” for “Tau binder.”, “96-well” for “96 well”, “fluoro deprenyl” for “Tau-reference binder”, “fluoro deprenyl” for “Tau-binder”

[4] = target: amyloid-beta (Homo sapiens, UniProt P05067); test: Binding affinity to amyloid-beta in AD brain homogenate, competition with 18F-labeled beta-amyloid binder; parameters: Low affinity to amyloid-beta: key: −: poor; ∘: moderate; +: good; ++: very good; +++: excellent
Sequence of amyloid-beta (P05067 672-711 limits assumed): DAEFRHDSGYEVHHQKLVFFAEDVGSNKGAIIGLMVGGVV
Description: as §1, with “beta-amyloid” for “Tau”, “96-well” for “96 well”, “beta-amyloid” for “Tau-reference”, “beta-amyloid binder” for “Tau-binder”

[5] = target: T3, MAO A (Homo sapiens, UniProt P21397); test: Binding affinity to MAO A in human HC brain homogenate, [18F]fluoroethyl harmine competition; details: human healthy control brain homogenate; for IC50: 18F-FEH competition; as to Low affinity to MAO A (HC homogenate): key: −: poor; ∘: moderate; +: good; ++: very good; +++: excellent
T3 construct: from tissue; host or cells: human healthy control brain homogenate
T3 sequence (P21397 1-527): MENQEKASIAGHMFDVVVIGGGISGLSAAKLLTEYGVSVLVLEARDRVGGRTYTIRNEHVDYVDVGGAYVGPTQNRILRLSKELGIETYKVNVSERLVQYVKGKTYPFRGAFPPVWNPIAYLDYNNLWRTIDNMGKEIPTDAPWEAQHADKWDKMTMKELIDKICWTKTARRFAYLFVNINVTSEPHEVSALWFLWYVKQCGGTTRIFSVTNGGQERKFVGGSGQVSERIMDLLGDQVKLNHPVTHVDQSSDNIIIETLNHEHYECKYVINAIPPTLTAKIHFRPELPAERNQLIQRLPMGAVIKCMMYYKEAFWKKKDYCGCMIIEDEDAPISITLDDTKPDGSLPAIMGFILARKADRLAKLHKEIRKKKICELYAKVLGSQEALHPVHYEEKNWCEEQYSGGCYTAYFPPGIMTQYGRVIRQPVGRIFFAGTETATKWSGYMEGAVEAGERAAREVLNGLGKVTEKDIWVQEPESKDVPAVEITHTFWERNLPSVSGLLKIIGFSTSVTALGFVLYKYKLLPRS
Description: as §1, with “of” for “of human Alzheimer disease”, “homogenate (without AD pathology)” for “homogenate”, “18F-labeled MAO-A binder ([^18F]fluoroethyl harmine, FEH).” for “^18F-labeled Tau binder.”, “96-well” for “96 well”, “FEH” for “Tau-reference binder”, “FEH” for “Tau-binder”

[6] = human HC brain homogenate; 18F-fluoro deprenyl competition; read-out: IC50 in HC brain homogenate (MAO B)
[7] = human AD brain homogenate; read-out: IC50 in AD brain homogenate (amyloid-beta)

SMILES	High affinity to Tau [1]	IC50 [1] [nM]	Low affinity to MAO A (mouse homogenate) [2]	IC50 [2] [nM]	Low affinity to MAO B ([3]; HC brain homogenate)	IC50 [3, 6] [nM]	Low affinity to amyloid-beta ([4]; AD brain homogenate)	IC50 [4, 7] [nM]	Low affinity to MAO A (HC homogenate) [5]	IC50 [5] [nM]	IC50 ([3]; read-out: IC50 in HC brain homogenate (MAO B); human HC brain homogenate; 18F-fluoro deprenyl competition) [nM]	IC50 ([4]; read-out: IC50 in AD brain homogenate (amyloid-beta); human AD brain homogenate) [nM]
Fc1nccc(-c2ccc3c(n2)[nH]c2ccncc23)c1Cl [Example F-4]	++	26	+++	> 1000	+++	> 1000	+++	> 1000	+++	> 1000	–	–
Nc1cc(-c2ccc3c(n2)[nH]c2ccncc23)ccc1F [Example F-10]	+++	–	+	25	+++	–	+++	–	+	24	> 1000	680
Fc1cc(-c2ccc3c(n2)[nH]c2ccncc23)cc(F)n1 [Example F-5]	++	29	+++	> 1000	+++	> 1000	+++	> 1000	+++	> 1000	–	–
N#Cc1ccc(-c2ccc3c(n2)[nH]c2ccncc23)cc1F [Example F-9]	++	13	++	181	+++	> 1000	+++	> 1000	++	333	–	–
Fc1cc(-c2ccc3c(n2)[nH]c2ccncc23)c(F)cn1 [Example F-6]	++	17	+++	> 1000	+++	> 1000	+++	> 1000	+++	> 1000	–	–

More lines, in order of falling IC50 [1], values ahead:

High affinity to Tau [1]	IC50 [1] [nM]	Low affinity to MAO A (mouse homogenate) [2]	IC50 [2] [nM]	Low affinity to MAO B ([3]; HC brain homogenate)	IC50 [3, 6] [nM]	Low affinity to amyloid-beta ([4]; AD brain homogenate)	IC50 [4, 7] [nM]	Low affinity to MAO A (HC homogenate) [5]	IC50 [5] [nM]	SMILES	IC50 ([3]; read-out: IC50 in HC brain homogenate (MAO B); human HC brain homogenate; 18F-fluoro deprenyl competition) [nM]	IC50 ([4]; read-out: IC50 in AD brain homogenate (amyloid-beta); human AD brain homogenate) [nM]
++	10	+++	701	++	387	+++	> 1000	+++	739	Fc1ccc(-c2ccc3c(n2)[nH]c2ccncc23)c(F)n1 [Example F-7]	–	–
++	9	+++	> 1000	+++	> 1000	+++	> 1000	+++	> 1000	Fc1cnc(F)c(-c2ccc3c(n2)[nH]c2ccncc23)c1 [Example F-8]	–	–
+++	8.7	++	152	–	–	–	–	–	–	N#Cc1cc(-c2ccc3c(n2)[nH]c2ccncc23)ccc1F [Example F-9a]	–	–
+++	7	+++	830	+++	645	+++	> 1000	+++	> 1000	Fc1nccc(-c2ccc3c(n2)[nH]c2ccncc23)c1F [Example F-3]	–	–
